From patent US7008905B2, “Method of combating undesired plant growth on cereals” (BASF Aktiengesellschaft, priority 2000, dated 2006)

Assays:
Format in all cases: in vivo
Stellaria media = assay: Pre-emergence test, weed control; details: 3 weeks after treatment, rating 0-100 (100=death), Table 3
Method: (§1) The pre-emergence tests involve spraying a liquid formulation of the compound onto the soil in which the seeds of the plant species mentioned above has recently been sown.
(§2) The soil used in the tests is a prepared horticultural loam. The formulations used in the tests are prepared from solutions of the test compounds in acetone containing 0.4% by weight of an alkylphenol/ethylene oxide condensate available under the trade mark TRITON X-155.
(§3) In these tests untreated sown soil is used as control. The herbicidal effects of the test compounds are assessed visually three weeks after spraying the soil and are recorded an a 0 to 100 scale. A rating 0 indicates growth as untreated control, a rating 100 indicates death. An increase of 10 unit an the linear scale approximates to a 10% increase in the level of effect. The results of the assessment are set out in Tables 1 to 4.

Galium aparine = assay: Pre-emergence test, weed control; details: 3 weeks after treatment, rating 0-100 (100=death), Table 3
Method: as §1, §2, §3

Matricaria inodora = assay: Pre-emergence test, weed control; details: 3 weeks after treatment, rating 0-100 (100=death), Table 3
Method: as §1, §2, §3

Setaria viridis = assay: Pre-emergence test, weed control; details: 3 weeks after treatment, rating 0-100 (100=death), Table 3
Method: as §1, §2, §3

Apera spica-venti = assay: Pre-emergence test, weed control; details: 3 weeks after treatment, rating 0-100 (100=death), Table 3
Method: as §1, §2, §3

Poa annua = assay: Pre-emergence test, weed control; details: 3 weeks after treatment, rating 0-100 (100=death), Table 3
Method: as §1, §2, §3

Veronica persica = assay: Pre-emergence test, weed control; details: 3 weeks after treatment, rating 0-100 (100=death), Table 3
Method: as §1, §2, §3

Alopecurus myosuroides = assay: Pre-emergence test, weed control; details: 3 weeks after treatment, rating 0-100 (100=death), Table 3
Method: as §1, §2, §3

Lolium perenne = assay: Pre-emergence test, weed control; details: 3 weeks after treatment, rating 0-100 (100=death), Table 3
Method: as §1, §2, §3

Lamium purpureum = assay: Pre-emergence test, weed control; details: 3 weeks after treatment, rating 0-100 (100=death), Table 3
Method: as §1, §2, §3

wheat = assay: Pre-emergence test, tolerance in wheat; details: in vivo
Method: as §1, §2
as §3, with “These acetone solutions are diluted with water and the resulting formulations applied at dosage levels corresponding to 15 g, 30 g, 60 g, 120 g or 240 g of active material per hectare in a volume equivalent to 900 liters per hectare. In” for “In”

VIOAR = assay: Pre-emergence test, weed control; details: 3 weeks after treatment, rating 0-100 (100=death), Table 3
Method: as §1, §2
as §3, with “These acetone solutions are diluted with water and the resulting formulations applied at dosage levels corresponding to 15 g, 30 g, 60 g, 120 g or 240 g of active material per hectare in a volume equivalent to 900 liters per hectare. In” for “In”

PAPRH = assay: Pre-emergence test, weed control; details: 3 weeks after treatment, rating 0-100 (100=death), Table 3
Method: as §1, §2
as §3, with “These acetone solutions are diluted with water and the resulting formulations applied at dosage levels corresponding to 15 g, 30 g, 60 g, 120 g or 240 g of active material per hectare in a volume equivalent to 900 liters per hectare. In” for “In”

[1] = system: Triticum aestivum variety “Kanzler”; assay: Pre-emergence test, selectivity; details: 3 weeks after treatment, rating 0-100 (100=death), Table 4
Method: as §1, §2
as §3, with “These acetone solutions are diluted with water and the resulting formulations applied at dosage levels corresponding to 15 g, 30 g, 60 g, 120 g or 240 g of active material per hectare in a volume equivalent to 900 liters per hectare. In” for “In”

[2] = system: Triticum aestivum variety “Monopol”; assay: Pre-emergence test, selectivity; details: 3 weeks after treatment, rating 0-100 (100=death), Table 4
Method: as §1, §2
as §3, with “These acetone solutions are diluted with water and the resulting formulations applied at dosage levels corresponding to 15 g, 30 g, 60 g, 120 g or 240 g of active material per hectare in a volume equivalent to 900 liters per hectare. In” for “In”

Cc1cc(Oc2ccnc(Cl)c2)nc(-c2ccc(C(F)(F)F)cc2)n1 [REF-6]
60: ALOMY weed control rating (Alopecurus myosuroides; 0.060 kg/ha)
96: VERPE weed control rating (Veronica persica; 0.030 kg/ha)
95: LOLPE weed control rating (Lolium perenne; 0.030 kg/ha)
8: TRZAWM rating (Selectivity) ([2]; 0.060 kg/ha)
65: GALAP weed control rating (Galium aparine; 0.120 kg/ha)
97: STEME weed control rating (Stellaria media; 0.030 kg/ha) | GALAP weed control rating (Galium aparine; 0.240 kg/ha) | ALOMY weed control rating (Alopecurus myosuroides; 0.120 kg/ha)
25: TRZAWK rating (Selectivity) ([1]; 0.240 kg/ha) | TRZAWM rating (Selectivity) ([2]; 0.240 kg/ha)
12: TRZAWK rating (Selectivity) ([1]; 0.120 kg/ha)
120 g/ha: maximum tolerated dose in wheat / dose at which sufficiently selective in wheat (wheat)
1: TRZAWM rating (Selectivity) ([2]; 0.030 kg/ha)
99: MATIN weed control rating (Matricaria inodora; 0.030 kg/ha) | ALOMY weed control rating (Alopecurus myosuroides; 0.240 kg/ha) | VIOAR weed control rating (VIOAR; 0.030 kg/ha) | VIOAR weed control rating (VIOAR; 0.060 kg/ha) | VIOAR weed control rating (VIOAR; 0.120 kg/ha) | VIOAR weed control rating (VIOAR; 0.240 kg/ha)
100: STEME weed control rating (Stellaria media; 0.060 kg/ha) | STEME weed control rating (Stellaria media; 0.120 kg/ha) | STEME weed control rating (Stellaria media; 0.240 kg/ha) | MATIN weed control rating (Matricaria inodora; 0.060 kg/ha) | MATIN weed control rating (Matricaria inodora; 0.120 kg/ha) | MATIN weed control rating (Matricaria inodora; 0.240 kg/ha) | SETVI weed control rating (Setaria viridis; 0.030 kg/ha) | SETVI weed control rating (Setaria viridis; 0.060 kg/ha) | SETVI weed control rating (Setaria viridis; 0.120 kg/ha) | SETVI weed control rating (Setaria viridis; 0.240 kg/ha) | APESV weed control rating (Apera spica-venti; 0.030 kg/ha) | APESV weed control rating (Apera spica-venti; 0.060 kg/ha) | APESV weed control rating (Apera spica-venti; 0.120 kg/ha) | APESV weed control rating (Apera spica-venti; 0.240 kg/ha) | POAAN weed control rating (Poa annua; 0.030 kg/ha) | POAAN weed control rating (Poa annua; 0.060 kg/ha) | POAAN weed control rating (Poa annua; 0.120 kg/ha) | POAAN weed control rating (Poa annua; 0.240 kg/ha) | VERPE weed control rating (Veronica persica; 0.060 kg/ha) | VERPE weed control rating (Veronica persica; 0.120 kg/ha) | VERPE weed control rating (Veronica persica; 0.240 kg/ha) | LOLPE weed control rating (Lolium perenne; 0.060 kg/ha) | LOLPE weed control rating (Lolium perenne; 0.120 kg/ha) | LOLPE weed control rating (Lolium perenne; 0.240 kg/ha) | LAMPU weed control rating (Lamium purpureum; 0.060 kg/ha) | LAMPU weed control rating (Lamium purpureum; 0.120 kg/ha) | LAMPU weed control rating (Lamium purpureum; 0.240 kg/ha) | PAPRH weed control rating (PAPRH; 0.030 kg/ha) | PAPRH weed control rating (PAPRH; 0.060 kg/ha) | PAPRH weed control rating (PAPRH; 0.120 kg/ha) | PAPRH weed control rating (PAPRH; 0.240 kg/ha)
10: TRZAWK rating (Selectivity) ([1]; 0.060 kg/ha)
15: TRZAWM rating (Selectivity) ([2]; 0.120 kg/ha)
30: ALOMY weed control rating (Alopecurus myosuroides; 0.030 kg/ha)
85: LAMPU weed control rating (Lamium purpureum; 0.030 kg/ha)
